36 compounds from patent US10076519B2 (CYTOKINETICS, INC., priority 2010, dated 2018) can be followed below.

The subject of one experiment is rabbit skeletal myofibrils (fast skeletal myofibrils). In words: Activation of fast skeletal myofibrils (PUMA assay, PK/LDH-coupled ATPase at pCa25). In kind it is biochemical. The following applies: AC1.4 determined according to the procedure of Example 39; reported as class symbols. The essentials:
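Detergent-washed rabbit psoas myofibrils (~90% fast fibres, calcium-regulated) assayed at calcium giving 25% of maximal ATPase rate (pCa25). ADP turnover coupled via pyruvate kinase/lactate dehydrogenase to NADH oxidation, read at 340 nm. Buffer 12 mM PIPES, 2 mM MgCl2, 1 mM DTT, pH 6.8; AC1.4 values derived.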
Take `CC(C)(CNc1ccc(-c2ccc(C#N)nc2)nn1)c1ccc(F)cc1` [5-(6-{[2-(4-fluorophenyl)-2-methylpropyl]amino}pyridazin-3-yl)pyridine-2-carbonitrile]: the “Mean AC1.4” value is recorded as “C (C=10-20 uM)”.

As to `CC(C)(CNc1ccc(-c2ccc(C(N)=O)nc2)nn1)c1ccc(F)cc1` [5-(6-{[2-(4-fluorophenyl)-2-methylpropyl]amino}pyridazin-3-yl)pyridine-2-carboxamide], the “Mean AC1.4” value was “B (B=1-10 uM)”.

`CC(C)(CNc1ccc(-c2cncc(C#N)c2)nn1)c1ccc(F)cc1` [5-(6-{[2-(4-fluorophenyl)-2-methylpropyl]amino}pyridazin-3-yl)pyridine-3-carbonitrile]: the “Mean AC1.4” value was “B (B=1-10 uM)”.

Regarding `CC(C)(CNc1ccc(-c2cncc(C(N)=O)c2)nn1)c1ccc(F)cc1` [5-(6-{[2-(4-fluorophenyl)-2-methylpropyl]amino}pyridazin-3-yl)pyridine-3-carboxamide], the “Mean AC1.4” value is on record as “B (B=1-10 uM)”.

Regarding `N#Cc1cncc(-c2ccc(NCC3(c4ccc(F)cc4)CC3)nn2)c1` [5-[6-({[(4-fluorophenyl)cyclopropyl]meth-yl}amino)pyridazin-3-yl]pyridine-3-carbonitrile], the “Mean AC1.4” value is recorded as “B (B=1-10 uM)”.

With `NC(=O)c1cncc(-c2ccc(NCC3(c4ccc(F)cc4)CC3)nn2)c1` [5-[6-({[(4-fluorophenyl)cyclopropyl]meth-yl}amino)pyridazin-3-yl]pyridine-3-carboxamide], the “Mean AC1.4” value is reported as “B (B=1-10 uM)”.

The experiment is the same for the next values; noted with them: median AC1.4 class, procedure of Example 39.
For `NC(=O)c1cc(-c2ccc(NC3(c4ncccc4F)CCC3)nn2)ccc1O` [5-(6-{[(3-fluoro(2-pyridyl))cyclobutyl]amino}pyr-idazin-3-yl)-2-hydroxybenzamide], the “Mean AC1.4” value is reported as “B (B=1-10 uM)”.

As to `NC(=O)c1ccc(-c2ccc(NC3(c4ncccc4F)CCC3)nn2)s1` [5-(6-{[(3-fluoro-2-pyridyl)cyclobutyl]amino}pyr-idazin-3-yl)thiophene-2-carboxamide], the “Mean AC1.4” value is “B (B=1-10 uM)”.

For the compound `O=C(O)c1ccc(-c2ccc(NC3(c4ncccc4F)CCC3)nn2)s1` [5-(6-{[(3-fluoro-2-pyridyl)cyclobutyl]amino}pyr-idazin-3-yl)thiophene-2-carboxylic acid], the “Mean AC1.4” value is “D (D=>20 uM)”.

As to `NC(=O)c1ccc(-c2ccc(NC3(c4ccc(F)cc4)CCC3)nn2)s1` [5-(6-{[(4-fluorophenyl)cyclobutyl]ami-no}pyridazin-3-yl)thiophene-2-carboxamide], the “Mean AC1.4” value is on record as “B (B=1-10 uM)”.

For `NC(=O)c1nnc(-c2ccc(NCC3(c4ncccc4F)CCC3)nn2)o1` [5-[6-({[(3-fluoro-2-pyridyl)cyclobutyl]methyl}ami-no)pyridazin-3-yl]-1,3,4-oxadiazole-2-carboxamide], the “Mean AC1.4” value was “C (C=10-20 uM)”.

As for `NC(=O)c1nnc(-c2ccc(NCC3(c4ncccc4F)CCC3)nn2)s1` [5-[6-({[(3-fluoro-2-pyridyl)cyclobutyl]methyl}ami-no)pyridazin-3-yl]-1,3,4-thiadiazole-2-carboxamide], the “Mean AC1.4” value is on record as “B (B=1-10 uM)”.

As to `NC(=O)c1ncc(-c2ccc(NCC3(c4ncccc4F)CCC3)nn2)s1` [5-[6-({[(3-fluoro-2-pyridyl)cyclobutyl]methyl}ami-no)pyridazin-3-yl]-1,3-thiazole-2-carboxamide], the “Mean AC1.4” value is given as “B (B=1-10 uM)”.

For `O=c1[nH][nH]c2nc(-c3ccc(NCC4(c5ncccc5F)CCC4)nn3)sc12` [5-[6-({[(3-fluoro-2-pyridyl)cyclobutyl]methyl}ami-no)pyridazin-3-yl]-3-pyrazolino[3,4-d]1,3-thiazol-3-one], the “Mean AC1.4” value is recorded as “D (D=>20 uM)”.

As to `NC(=O)c1nnc(-c2ccc(NCC3(c4ncccc4F)CCC3)nn2)[nH]1` [5-[6-({[(3-fluoro-2-pyridyl)cyclobutyl]methyl}ami-no)pyridazin-3-yl]-4H-1,2,4-triazole-3-carboxamide], the “Mean AC1.4” value is given as “C (C=10-20 uM)”.

Consider `N#Cc1ccc(-c2ccc(NCC3(c4ncccc4F)CCC3)nn2)s1` [5-[6-({[(3-fluoro-2-pyridyl)cyclobutyl]methyl}ami-no)pyridazin-3-yl]thiophene-2-carbonitrile], for which the “Mean AC1.4” value is given as “B (B=1-10 uM)”.

Consider `NC(=O)c1ccc(-c2ccc(NCC3(c4ncccc4F)CCC3)nn2)s1` [5-[6-({[(3-fluoro-2-pyridyl)cyclobutyl]methyl}ami-no)pyridazin-3-yl]thiophene-2-carboxamide], for which the “Mean AC1.4” value is given as “A (A=<1 uM)”.

Take `O=C(O)c1ccc(-c2ccc(NCC3(c4ncccc4F)CCC3)nn2)s1` [5-[6-({[(3-fluoro-2-pyridyl)cyclobutyl]methyl}ami-no)pyridazin-3-yl]thiophene-2-carboxylic acid]: the “Mean AC1.4” value is “B (B=1-10 uM)”.

`O=c1[nH]nc(-c2cnc(-c3ccc(NCC4(c5ncccc5F)CCC4)nn3)s2)o1` [5-{2-[6-({[(3-fluoro-2-pyridyl)cyclobutyl]methyl}ami-no)pyridazin-3-yl]-1,3-thiazol-5-yl}-1,3,4-oxadiazolin-2-one]: the “Mean AC1.4” value was “B (B=1-10 uM)”.

Staying with this experiment, now noted: median AC1.4 reported as class; procedure of Example 39.
Turning to `NC(=O)c1cc(-c2ccc(NC[C@]3(c4ncccc4F)C[C@H](F)C3)nn2)ccc1O` [5-[6-({[3-fluoro-1-(3-fluoro(2-pyridyl))cyclobutyl]methyl}ami-no)pyridazin-3-yl]-2-hydroxybenzamide], the “Mean AC1.4” value is “A (A=<1 uM)”.

Regarding `O=C(O)c1cc(-c2ccc(NC[C@]3(c4ncccc4F)C[C@H](F)C3)nn2)ccc1O` [5-[6-({[3-fluoro-1-(3-fluoro(2-pyridyl))cyclobutyl]methyl}ami-no)pyridazin-3-yl]-2-hydroxybenzoic acid], the “Mean AC1.4” value is “B (B=1-10 uM)”.

Take `COc1ccc(-c2ccc(NC[C@]3(c4ncccc4F)C[C@H](F)C3)nn2)cc1C(N)=O` [5-[6-({[3-fluoro-1-(3-fluoro(2-pyridyl))cyclobutyl]methyl}ami-no)pyridazin-3-yl]-2-methoxybenzamide]: the “Mean AC1.4” value was “B (B=1-10 uM)”.

For `NC(=O)c1cc2cc(-c3ccc(NC[C@]4(c5ncccc5F)C[C@H](F)C4)nn3)ccc2[nH]1` [5-[6-({[3-fluoro-1-(3-fluoro(2-pyridyl))cyclobutyl]methyl}ami-no)pyridazin-3-yl]indole-2-carboxamide], the “Mean AC1.4” value was “A (A=<1 uM)”.

Turning to `O=C(O)c1cc2cc(-c3ccc(NC[C@]4(c5ncccc5F)C[C@H](F)C4)nn3)ccc2[nH]1` [5-[6-({[3-fluoro-1-(3-fluoro(2-pyridyl))cyclobutyl]methyl}ami-no)pyridazin-3-yl]indole-2-carboxylic acid], the “Mean AC1.4” value was “B (B=1-10 uM)”.

Turning to `O=C1NCc2cc(-c3ccc(NC[C@]4(c5ncccc5F)C[C@H](F)C4)nn3)ccc21` [5-[6-({[3-fluoro-1-(3-fluoro(2-pyridyl))cyclobutyl]methyl}ami-no)pyridazin-3-yl]isoindolin-1-one], the “Mean AC1.4” value is on record as “C (C=10-20 uM)”.

Take `COc1ncc(-c2ccc(NCC3(c4ncccc4F)CCC3)nn2)cc1C#N` [5-[6-({[(3-fluoro(2-pyridyl))cyclobutyl]methyl}ami-no)pyridazin-3-yl]-2-methoxypyridine-3-carbonitrile]: the “Mean AC1.4” value was “D (D=>20 uM)”.

Take `COc1ncc(-c2ccc(NCC3(c4ncccc4F)CCC3)nn2)cc1C(N)=O` [5-[6-({[(3-fluoro(2-pyridyl))cyclobutyl]methyl}ami-no)pyridazin-3-yl]-2-methoxypyridine-3-carboxamide]: the “Mean AC1.4” value is listed as “C (C=10-20 uM)”.

`NC(=O)c1cc(-c2ccc(NCC3(c4ncccc4F)CCC3)nn2)c[nH]c1=O` [5-[6-({[(3-fluoro(2-pyridyl))cyclobutyl]methyl}ami-no)pyridazin-3-yl]-2-oxohydropyridine-3-carboxamide]: the “Mean AC1.4” value was “C (C=10-20 uM)”.

For `O=C(O)c1cc(-c2ccc(NCC3(c4ncccc4F)CCC3)nn2)c[nH]c1=O` [5-[6-({[(3-fluoro(2-pyridyl))cyclobutyl]methyl}ami-no)pyridazin-3-yl]-2-oxohydropyridine-3-carboxylic acid], the “Mean AC1.4” value was “D (D=>20 uM)”.

`O=c1cc(-c2ccc(NCC3(c4ncccc4F)CCC3)nn2)nc2cc[nH]n12` [5-[6-({[(3-fluoro-2-pyridyl)cyclobutyl]methyl}ami-no)pyridazin-3-yl]-8-hydro-3-pyrazolino[1,5-a]pyrimidin-7-one]: the “Mean AC1.4” value was “B (B=1-10 uM)”.

Take `CC(=O)N1CCc2nc(-c3ccc(NCC4(c5ncccc5F)CCC4)nn3)sc2C1` [5-acetyl-2-[6-({[(3-fluoro(2-pyridyl))cyclobutyl]methyl}ami-no)pyridazin-3-yl]-4,5,6,7-tetrahydro-1,3-thiazolo[5,4-c]pyridine]: the “Mean AC1.4” value is recorded as “D (D=>20 uM)”.

For `NC(=O)c1cc(N)cc(-c2ccc(NC[C@]3(c4ncccc4F)C[C@H](F)C3)nn2)c1` [5-amino-3-[6-({[3-fluoro-1-(3-fluoro(2-pyridyl))cyclobutyl]methyl}ami-no)pyridazin-3-yl]benzamide], the “Mean AC1.4” value is listed as “B (B=1-10 uM)”.

Regarding `N#Cc1cc(N)cc(-c2ccc(NC[C@]3(c4ncccc4F)C[C@H](F)C3)nn2)c1` [5-amino-3-[6-({[3-fluoro-1-(3-fluoro(2-pyridyl))cyclobutyl]methyl}ami-no)pyridazin-3-yl]benzenecarbonitrile], the “Mean AC1.4” value is given as “A (A=<1 uM)”.

For the compound `N#Cc1cc(Br)cc(-c2ccc(NCC3(c4ncccc4F)CCC3)nn2)c1O` [5-bromo-3-[6-({[(3-fluoro(2-pyridyl))cyclobutyl]methyl}ami-no)pyridazin-3-yl]-2-hydroxybenzenecarbonitrile], the “Mean AC1.4” value is “A (A=<1 uM)”.

On to `NC(=O)c1cc(Cl)cc(-c2ccc(NC[C@]3(c4ncccc4F)C[C@H](F)C3)nn2)c1` [5-chloro-3-[6-({[3-fluoro-1-(3-fluoro(2-pyridyl))cyclobutyl]methyl}ami-no)pyridazin-3-yl]benzamide], for which the “Mean AC1.4” value is on record as “B (B=1-10 uM)”.

On to `NC(=O)c1cn[nH]c1NC(=O)c1ccc(NCC2(c3ncccc3F)CCC2)nn1` [5-{[6-({[(3-fluoro-2-pyridyl)cyclobutyl]methyl}ami-no)pyridazin-3-yl]carbonylamino}pyrazole-4-carboxamide], for which the “Mean AC1.4” value is “C (C=10-20 uM)”.
